# Source: article PMC11817060, “Optimizing Therapeutics for Intratumoral Cancer Treatments: Antiproliferative Vanadium Complexes in Glioblastoma” (International Journal of Molecular Sciences, 2025)
# Like-named read-outs stand apart in the source and are kept apart here.
# How the values were obtained:
# [1] = tested on: T98G (glioblastoma multiforme) cells; assay: MTT cell viability assay (72 h), fresh or aged solutions, T98G; type: cell-based, human; details: 72 h incubation
# Experimental: (§1) For viability experiments, the cells were seeded in 96-well plates at an initial density of 1.0 × 10^3 (T98G) or 3.0 × 10^3 (SVG p12) viable cells per well in 100 μL medium and left to attach overnight.
# (§2) For all cell assays, freshly prepared stock solutions of the V(V) complexes (10 mM in DMSO) were used. […] The same concentration of DMSO was used in the control experiments. Stock solutions of Na3VO4 (10 mM in MilliQ H2O) and cisplatin (1.0 mM in phosphate-buffered saline) were prepared on the day of the experiments. […] The treatment complexes were applied in a series of nine two-fold dilutions, starting from 100 μM V, plus the vehicle control. Each treatment was composed of six replicate wells with cells and two background wells without cells but containing the same compounds. […] (1.0 mg/mL in complete medium), and incubation was continued for 4–6 h. The medium was then removed, the blue formazan crystals were dissolved in 0.10 mL per well of DMSO, and the absorbance at 600 nm was measured with a Victor V3 plate reader.
# [2] = tested on: SVG p12 (immortalized non-cancer brain astroglia) cells; assay: MTT cell viability assay (72 h), fresh or aged solutions, SVG p12; type: cell-based, human; details: for IC50: 72 h incubation
# Experimental: as §1, §2
# [3] = Homo sapiens, T98G, pre-incubated with medium for 24 h at 310 K before addition to cells (B), read-out: IC50 (T98G), aged solutions (B)
structure (smiles),measurement,setting,value
"OCCNCC/N=C/c1ccccc1O [Compound H2SHED, N-(salicylideneaminato)-N′-(2-hydroxyethyl)-1,2-ethanediamine]",IC50,[1]; [3],> 100 µM
"CC(C)c1cc(C(C)C)c(C(C)C)c(O)c1O [TIPCATH2, 3,4,6-tri-iso-propyl catechol]",IC50,[1]; [3],54 ± 7 µM
"CC(C)(C)c1cc(O)c(O)c(C(C)(C)C)c1 [DTBH2, 3,5-di-tert-butylcatechol]",IC50,[1]; [3],26 ± 3 µM
"CC(C)c1cc(O)c(O)c(C(C)C)c1 [DIPCATH2, 3,5-di-iso-propyl-catechol]",IC50,[1]; [3],54 ± 8 µM
[Na+].[Na+].[Na+].[O]=[V]([O-])([O-])[O-] [Na3VO4],IC50,"[1]; pre-incubated with medium for 24 h at 310 K before addition to cells (B), read-out: IC50 (T98G), aged solutions (B)",40 ± 3 µM
same,IC50,"[2]; pre-incubated with medium for 24 h at 310 K before addition to cells (B), read-out: IC50 (SVG p12), aged solutions (B)",48 ± 4 µM
same,Effect of subtoxic V(V) concentrations on cell viability,"[2]; SVG p12, 72 h assay, aged in the medium for 24 h, not observed in T98G",increase in cell viability
N.N.[Cl][Pt][Cl] [cisplatin],IC50,"[1]; fresh solutions added to cells within 1 min (A), read-out: IC50 (T98G), fresh solutions (A)",31 ± 1 µM
same,IC50,"[2]; fresh solutions added to cells within 1 min (A), read-out: IC50 (SVG p12), fresh solutions (A)",6.1 ± 0.4 µM
